The target of one data set is T1, CDK1/cyclin B1 (Homo sapiens, UniProt P06493).
T1 construct: purchased
The data set can be described thus: In vitro anti-CDK1/cyclin B1 kinase assay (Kinase-Glo luminescence). Type of data set: biochemical. As to conditions: for inhibition at 20 µM: test compounds at 20 μM, read-out: Inhibition rates (%) CDK1; for Selectivity: CDK1 compared with CDK4 (CDK4 IC50 / CDK1 IC50). The procedure: (§1) In vitro anti-CDK1/cyclin B1 and CDK4/cyclin D3 assays were performed as described by the manufacturer. All test compounds and controls were dissolved in dimethyl sulfoxide (DMSO) to prepare 50 μM stock solutions. The stock solutions were diluted by double-distilled water and buffer to 40, 30, 20, and 10 μM working concentrations and stored at −20°C. Buffer, ATP, CDK substrate […], and distilled water were mixed, and then 25 μl of the mixture was added to a 96-well plate. Five microliters of 20 μM test compounds were sequentially added. CDK1/cyclin B1 was diluted to 1 ng/μl, and CDK4/cyclin D3 was diluted to 10 ng/μl using a buffer. Twenty microliters of the kinase solutions were incubated with the test compounds at 30°C for 45 min for CDK1/cyclin B1 and for 60 min for CDK4/cyclin D3. Finally, 50 μl of Kinase-Glo Max reagent was added to each well. The 96-well plate was covered with aluminum foil and incubated at room temperature for 15 min. Luminescence of the test compounds was measured with a microplate reader.

In the next data set the target is T2, CDK4/cyclin D3 (Homo sapiens, UniProt P11802).
T2 construct: purchased
T2 sequence (P11802 whole entry): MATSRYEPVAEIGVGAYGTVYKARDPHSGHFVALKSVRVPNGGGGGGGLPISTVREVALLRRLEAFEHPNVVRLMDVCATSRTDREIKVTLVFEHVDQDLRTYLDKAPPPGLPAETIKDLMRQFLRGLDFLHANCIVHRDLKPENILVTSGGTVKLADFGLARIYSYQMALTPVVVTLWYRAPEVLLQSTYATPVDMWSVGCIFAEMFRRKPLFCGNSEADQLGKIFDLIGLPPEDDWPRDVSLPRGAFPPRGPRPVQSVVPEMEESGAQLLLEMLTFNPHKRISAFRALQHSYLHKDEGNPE
T2 sequence (P30281 whole entry partner): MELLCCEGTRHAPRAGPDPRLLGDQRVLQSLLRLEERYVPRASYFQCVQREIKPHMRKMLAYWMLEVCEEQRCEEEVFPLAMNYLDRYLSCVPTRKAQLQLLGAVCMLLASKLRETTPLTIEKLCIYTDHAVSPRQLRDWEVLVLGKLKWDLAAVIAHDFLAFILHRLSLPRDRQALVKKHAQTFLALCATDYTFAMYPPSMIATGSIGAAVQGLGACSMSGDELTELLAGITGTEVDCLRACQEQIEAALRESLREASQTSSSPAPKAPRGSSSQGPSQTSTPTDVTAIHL
The data set can be described thus: In vitro anti-CDK4/cyclin D3 kinase assay (Kinase-Glo luminescence). In kind it is biochemical. Particulars: for inhibition at 20 µM: test compounds at 20 μM, read-out: Inhibition rates (%) CDK4. The procedure:
as §1

T1 sequence (P06493 whole entry): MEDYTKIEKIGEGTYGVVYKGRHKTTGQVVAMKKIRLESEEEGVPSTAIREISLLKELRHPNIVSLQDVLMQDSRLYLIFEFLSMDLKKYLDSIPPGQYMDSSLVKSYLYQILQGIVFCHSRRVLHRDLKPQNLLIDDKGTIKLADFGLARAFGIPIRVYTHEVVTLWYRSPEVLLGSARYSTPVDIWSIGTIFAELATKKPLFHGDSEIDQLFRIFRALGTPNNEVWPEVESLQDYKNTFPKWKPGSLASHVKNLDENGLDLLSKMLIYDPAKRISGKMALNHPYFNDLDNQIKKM
T1 sequence (P14635 whole entry partner): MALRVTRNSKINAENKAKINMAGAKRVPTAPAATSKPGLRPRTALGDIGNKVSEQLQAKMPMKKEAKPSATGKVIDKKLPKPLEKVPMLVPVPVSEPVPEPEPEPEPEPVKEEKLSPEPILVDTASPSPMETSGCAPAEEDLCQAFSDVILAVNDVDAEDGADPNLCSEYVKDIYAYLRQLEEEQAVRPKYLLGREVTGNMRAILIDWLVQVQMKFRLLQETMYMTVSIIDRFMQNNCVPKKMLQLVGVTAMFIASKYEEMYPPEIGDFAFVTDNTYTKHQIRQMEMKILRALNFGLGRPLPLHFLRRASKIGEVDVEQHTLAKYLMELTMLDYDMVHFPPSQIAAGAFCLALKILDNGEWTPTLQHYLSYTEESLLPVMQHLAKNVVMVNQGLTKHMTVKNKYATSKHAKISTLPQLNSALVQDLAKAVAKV

The IC50 is the concentration at which inhibition is half-maximal. A lower IC50 goes with higher potency. What is called inhibition is how much of the control response was suppressed. For orientation: melting point means the temperature, or range, at which the solid turns liquid. For `COc1ccc(-c2cc(=O)c3c(O)cc(OCCCCBr)cc3o2)cc1` [Compound 12d, 7-(4-Bromobutoxy)-5-hydroxy-2-(4-methoxyphenyl)-4H-chromen-4-one], the melting point lay in the range of 178.9 to 179.8 °C. On CDK1/cyclin B1, half-maximal inhibition (IC50) required 51.4 ± 1.56 µM and the inhibition at 20 µM was determined as 36.91 ± 0.08%. Further, on CDK4/cyclin D3, the inhibition at 20 µM came out at 3.47 ± 0.04%.

`O=c1cc(-c2ccccc2)oc2c(CN3CCOCC3)c(OCc3ccccc3)c(O)c(O)c12` [Compound 3a, 7-(Benzyloxy)-5,6-dihydroxy-8-(morpholinomethyl)-2-phenyl-4H-chromen-4-one]: the melting point was in the range of 218.3 to 219.8 °C. On CDK1/cyclin B1, inhibition was half-maximal at 42.2 ± 1.62 µM (IC50), the Selectivity worked out at 12.88 and the inhibition at 20 µM is 38.11 ± 0.09%. Besides, on CDK4/cyclin D3, the IC50 was 543.8 ± 4.83 µM and the inhibition at 20 µM amounted to 2.73 ± 0.06%.

`CCCN(CCC)Cc1c(O)cc2oc(-c3ccc(OC)cc3)cc(=O)c2c1O` [Compound 9b, 6-((Dipropylamino)methyl)-5,7-dihydroxy-2-(4-methoxyphenyl)-4H-chromen-4-one] showed a melting point of 180.6 to 181.3 °C. Further, the inhibition at 20 µM at CDK1/cyclin B1 is 30.69 ± 0.1%. For the same compound, the inhibition at 20 µM on CDK4/cyclin D3 is 8.55 ± 0.09%.

Consider `O=c1cc(-c2ccccc2)oc2cc(OCc3ccccc3)cc(O)c12` [Compound 7a, 7-(Benzyloxy)-5-hydroxy-2-phenyl-4H-chromen-4-one], for which, at CDK1/cyclin B1, inhibition was half-maximal at 55 ± 1.45 µM (IC50), the Selectivity worked out at 2.37 and the inhibition at 20 µM was found to be 39.51 ± 0.06%. Moreover, half-maximal inhibition at CDK4/cyclin D3 (IC50) was put at 130 ± 2.84 µM.

Take `O=c1cc(-c2ccccc2)oc2cc(O)c(CN3CCCC3)c(O)c12` [Compound 4a, 5,7-Dihydroxy-2-phenyl-6-(pyrrolidin-1-ylmethyl)-4H-chromen-4-one]: the melting point is 195.2 to 196.3 °C. Further, the inhibition at 20 µM on CDK1/cyclin B1 came out at 31.72 ± 0.1%.

In the case of `COc1ccc(-c2cc(=O)c3c(O)c(CN4CCN(C)CC4)c(O)cc3o2)cc1` [Compound 9a, 5,7-Dihydroxy-2-(4-methoxyphenyl)-6-((4-methylpiperazin-1-yl)methyl)-4H-chromen-4-one], the melting point lay in the range of 172.3 to 173.4 °C. At CDK1/cyclin B1, the inhibition at 20 µM was found to be 26.36 ± 0.09%. Besides, the inhibition at 20 µM on CDK4/cyclin D3 came to 5.43 ± 0.06%.

`COc1cc(O)c2c(=O)cc(-c3ccccc3)oc2c1` [Compound 7b, 5-Hydroxy-7-methoxy-2-phenyl-4H-chromen-4-one]: the inhibition at 20 µM on CDK1/cyclin B1 is 21.27 ± 0.09%; on CDK4/cyclin D3, 1.76 ± 0.05%.

The compound `COc1ccc(-c2cc(=O)c3c(O)c(CN(C)C)c(O)c(CN(C)C)c3o2)cc1` [Compound 10d, 6,8-Bis((dimethylamino)methyl)-5,7-dihydroxy-2-(4-methoxyphenyl)-4H-chromen-4-one] had a melting point of 191.6 to 193.7 °C. The inhibition at 20 µM at CDK1/cyclin B1 came out at 35.53 ± 0.08%. In addition, the inhibition at 20 µM at CDK4/cyclin D3 was determined as 2.73 ± 0.08%.

As for `CCCN(CCC)Cc1c(O)c(O)c(O)c2c(=O)cc(-c3ccccc3)oc12` [Compound 1d], the results for the inhibition at 20 µM on CDK1/cyclin B1 and on CDK4/cyclin D3 were 31.11 ± 0.1% and 2.47 ± 0.08%, respectively.

`CN(C)Cc1c2c(c(O)c3c(=O)cc(-c4ccccc4)oc13)OCCCCO2` [Compound 2c, 7-((Dimethylamino)methyl)-12-hydroxy-9-phenyl-2,3,4,5-tetrahydro-[1,4]dioxocino[2,3-g]chromen-11-one]: the melting point lay in the range of 208.5 to 210.6 °C. Further, at CDK1/cyclin B1, the inhibition at 20 µM was found to be 29.4 ± 0.09%. Also, the inhibition at 20 µM at CDK4/cyclin D3 was determined as 10.96 ± 0.09%.

Take `O=c1cc(-c2ccccc2)oc2c(CN3CCSCC3)c3c(c(O)c12)OCCCCO3` [Compound 2b, 12-Hydroxy-9-phenyl-7-(thiomorpholinomethyl)-2,3,4,5-tetrahydro-[1,4]dioxocino[2,3-g]chromen-11-one]: the melting point lay within 202.3 to 203.6 °C. Also, the inhibition at 20 µM on CDK1/cyclin B1 amounted to 27.19 ± 0.07%. Also, the inhibition at 20 µM on CDK4/cyclin D3 came to 10.18 ± 0.08%.

Regarding `CN(C)Cc1c(O)c(O)c(O)c2c(=O)cc(-c3ccccc3)oc12` [Compound 1c], at CDK1/cyclin B1, the inhibition at 20 µM was found to be 29.28 ± 0.11%.

On to `COc1ccc(-c2cc(=O)c3c(O)c(CN4CCSCC4)c(O)c(CN4CCSCC4)c3o2)cc1` [Compound 10b, 5,7-Dihydroxy-2-(4-methoxyphenyl)-6,8-bis(thiomorpholinomethyl)-4H-chromen-4-one], for which the melting point lay in the range of 214.2 to 215.5 °C. Further, at CDK1/cyclin B1, the inhibition at 20 µM was 29.54 ± 0.11%.

Take `COc1ccc(-c2cc(=O)c3c(O)cc(O)cc3o2)cc1` [acacetin, reference compound]: on CDK1/cyclin B1, 31.9 ± 1.08 µM corresponded to half-maximal inhibition (IC50), the Selectivity stood at 6.45 and the inhibition at 20 µM was determined as 34.64 ± 0.11%. Further, at CDK4/cyclin D3, the IC50 was 206 ± 3.61 µM and the inhibition at 20 µM was found to be 10.44 ± 0.07%.

`COc1ccc(-c2cc(=O)c3c(O)c(CN4CCCC4)c(O)c(CN4CCCC4)c3o2)cc1` [Compound 10a, 5,7-Dihydroxy-2-(4-methoxyphenyl)-6,8-bis(pyrrolidin-1-ylmethyl)-4H-chromen-4-one]: the melting point lay within 207.1 to 207.3 °C. Further, the inhibition at 20 µM on CDK1/cyclin B1 came out at 24.07 ± 0.1%. In addition, the inhibition at 20 µM on CDK4/cyclin D3 was determined as 4.68 ± 0.07%.

`O=c1cc(-c2ccccc2)oc2c(CN3CCSCC3)c(O)cc(O)c12` [Compound 6c, 5,7-Dihydroxy-2-phenyl-8-(thiomorpholinomethyl)-4H-chromen-4-one] showed a melting point of 218.3 to 219.5 °C. For the same compound, the inhibition at 20 µM at CDK1/cyclin B1 is 34.19 ± 0.1%. Further, on CDK4/cyclin D3, the inhibition at 20 µM was 9.87 ± 0.09%.

Turning to `O=c1cc(-c2ccccc2)oc2c(CN3CCSCC3)c(O)c(O)c(O)c12` [Compound 1b], the inhibition at 20 µM amounted to 31.71 ± 0.08% at CDK1/cyclin B1 and 0.09 ± 0.03% on CDK4/cyclin D3.

In turn, `O=c1cc(-c2ccccc2)oc2c(CN3CCCC3)c(O)cc(O)c12` [Compound 6a, 5,7-Dihydroxy-2-phenyl-8-(pyrrolidin-1-ylmethyl)-4H-chromen-4-one] gave a melting point of 192.9 to 193 °C. For the same compound, on CDK1/cyclin B1, inhibition was half-maximal at 51.4 ± 1.68 µM (IC50), the Selectivity is given as 4.45 and the inhibition at 20 µM is 35.95 ± 0.09%. At CDK4/cyclin D3, the IC50 is 229 ± 4.55 µM and the inhibition at 20 µM is 6.3 ± 0.07%.

On to `O=c1cc(-c2ccccc2)oc2cc(OCCBr)cc(O)c12` [Compound 7c, 7-(2-Bromoethoxy)-5-hydroxy-2-phenyl-4H-chromen-4-one], for which the melting point lay within 169.3 to 170.1 °C. Moreover, the inhibition at 20 µM at CDK1/cyclin B1 came out at 22.74 ± 0.11%.

Turning to `CN1CCN(Cc2c(O)cc3oc(-c4ccccc4)cc(=O)c3c2O)CC1` [Compound 4b, 5,7-Dihydroxy-6-((4-methylpiperazin-1-yl)methyl)-2-phenyl-4H-chromen-4-one], the melting point was 179.5 to 180.1 °C. Further, at CDK1/cyclin B1, the inhibition at 20 µM is 28.14 ± 0.12%.

As for `COc1ccc(-c2cc(=O)c3c(O)cc(O)c(CN4CCSCC4)c3o2)cc1` [Compound 11a, 5,7-Bihydroxy-2-(4-methoxyphenyl)-8-(thiomorpholinomethyl)-4H-chromen-4-one], the melting point lay in the range of 211 to 213.4 °C. At CDK1/cyclin B1, the inhibition at 20 µM was 26.12 ± 0.1%.

In the case of `O=c1cc(-c2ccccc2)oc2cc(O)c(O)c(O)c12` [baicalein, reference compound], on CDK1/cyclin B1, the IC50 was 62.7 ± 1.52 µM, the Selectivity turned out to be 5.65 and the inhibition at 20 µM was found to be 18.85 ± 0.09%. In addition, the IC50 on CDK4/cyclin D3 is 354 ± 5.67 µM.

Take `CN1CCN(Cc2c(O)c(CN3CCN(C)CC3)c3oc(-c4ccccc4)cc(=O)c3c2O)CC1` [Compound 5e, 5,7-Dihydroxy-6,8-bis((4-methylpiperazin-1-yl)methyl)-2-phenyl-4H-chromen-4-one]: at CDK1/cyclin B1, the inhibition at 20 µM was 26.75 ± 0.1%.

With `COc1cc2oc(-c3ccccc3)cc(=O)c2c(O)c1CN1CCOCC1` [Compound 8a, 5-Hydroxy-7-methoxy-6-(morpholinomethyl)-2-phenyl-4H-chromen-4-one], the melting point was in the range of 187 to 188.6 °C. The inhibition at 20 µM at CDK1/cyclin B1 is 31.04 ± 0.1%.

`O=c1cc(-c2ccccc2)oc2c(CN3CCSCC3)c(O)c(CN3CCSCC3)c(O)c12` [Compound 5d, 5,7-Dihydroxy-2-phenyl-6,8-bis(thiomorpholinomethyl)-4H-chromen-4-one]: the melting point was in the range of 211 to 212.4 °C. The inhibition at 20 µM at CDK1/cyclin B1 came to 30.39 ± 0.09%.

Consider `COc1ccc(-c2cc(=O)c3c(O)cc(OC)cc3o2)cc1` [Compound 12b, 5-Hydroxy-7-methoxy-2-(4-methoxyphenyl)-4H-chromen-4-one], for which the inhibition at 20 µM came to 32.4 ± 0.11% at CDK1/cyclin B1 and 7.93 ± 0.08% on CDK4/cyclin D3.

`O=c1cc(-c2ccccc2)oc2c(CN3CC=CC3)c(O)c(CN3CC=CC3)c(O)c12` [Compound 5b, 6,8-Bis((2H-pyrrol-1(5H)-yl)methyl)-5,7-dihydroxy-2-phenyl-4H-chromen-4-one] registered a melting point of 172.7 to 174.3 °C. In addition, the inhibition at 20 µM at CDK1/cyclin B1 is 28.66 ± 0.11%.

On to `COc1cc2oc(-c3ccccc3)cc(=O)c2c(O)c1CN1CCSCC1` [Compound 8b, 5-Hydroxy-7-methoxy-2-phenyl-6-(thiomorpholinomethyl)-4H-chromen-4-one], for which the melting point is 210.3 to 212 °C. Further, on CDK1/cyclin B1, the inhibition at 20 µM was 20.47 ± 0.08%.

On to `O=c1cc(-c2ccccc2)oc2c(CN3CCOCC3)c(O)c(O)c(O)c12` [Compound 1a], for which the inhibition at 20 µM was found to be 25.48 ± 0.11% at CDK1/cyclin B1 and 6.71 ± 0.07% at CDK4/cyclin D3.

Take `O=c1cc(-c2ccccc2)oc2cc(O)cc(O)c12` [chrysin, reference compound]: on CDK1/cyclin B1, the IC50 was 36.6 ± 1.23 µM, the Selectivity turned out to be 6.13 and the inhibition at 20 µM was 32.77 ± 0.09%. For the same compound, at CDK4/cyclin D3, half-maximal inhibition (IC50) was put at 225 ± 3.46 µM.

For the origin of these results see publication PMC9393241, “Design, Synthesis, and Activity Assays of Cyclin-Dependent Kinase 1 Inhibitors With Flavone Scaffolds” (Frontiers in Chemistry, 2022).
